Reference: patent publication US20100179091A1, “Treatment of Conditions Related to Shock” (THE REGENTS OF THE UNIVERSITY OF CALIFORNIA, priority 2007, published 2010)

System: shock induced in lab rodents
Assay: Survival of lab rodents after induced shock, treated with digestive enzyme inhibitor
Assay type: in vivo, rodent
Text: The present invention is based on the latest research using rodent models of human hemorrhagic shock. Here it has been discovered that the sudden lowering of blood pressure that occurs in people suffering from […] can provoke the body's digestive enzymes to break down the body's own intestinal and other tissues as if it were food. Such enzymes' abnormal actions may be defined as “auto-digestion.” Auto-digestion is dangerous because not only does it injure healthy tissue but also contributes to multi-organ failure, which can be fatal.
The healthy cells of the animals' intestinal tissue react to auto-digestion by releasing a slew of substances that can be toxic to the heart and other body organs. These substances, termed cytotoxic mediators, can reach these body organs via the blood stream. In recent studies, shock was induced in 19 lab rodents, all of which were then treated with therapies that mirror the emergency room care given to many human patients who suffer shock, which typically occurs when blood flow to the heart, lungs and other body organs is slowed as a result of trauma, dehydration, heart attack, stroke or radiation.
A total of 10 of the 19 lab rodents in shock were also treated with the experimental digestive enzyme inhibitor called ANGD. […] However, only one of the nine “untreated” animals in shock survived. […]

SMILES: CS(=O)(=O)O.CS(=O)(=O)O.N=C(N)Nc1ccc(C(=O)Oc2ccc3cc(C(=N)N)ccc3c2)cc1 [ANGD]
- animals surviving (10 of 19 lab rodents in shock treated with ANGD plus basic shock care, one of nine untreated survived): Eight of the ten survived
- survival rate (lab animals in which shock had been induced): dramatically improved the survival rate
